Usually Kd stands for the equilibrium constant for the complex coming apart.

This passage reports WLOGSY factor and Kd results from publication PMC6691826, “1D NMR WaterLOGSY as an efficient method for fragment-based lead discovery” (Journal of Enzyme Inhibition and Medicinal Chemistry, 2019).

Experiment [1] deals with T1, human serum albumin (HSA) (Homo sapiens, UniProt P02768).
T1 construct: purchased Sigma A3782
Kind of experiment: WaterLOGSY NMR epitope mapping, HSA. The class given is binding. Conditions: all protons, bound to HSA, 1.5 s mixing time, normalised. The protocol:
(§1) NMR samples for STD experiments consisted of 400 µM fragment in 0.5% DMSO-d6 and 10% D2O (v/v) together with a protein concentration of 20 µM for peroxiredoxin and HSP90, 10 µM for Bcl-xL, 15 µM for Mcl-1, 2 µM for glycogen phosphorylase, and 5 µM for HSA.
(§2) Standard 1 D, STD, and WaterLOGSY NMR spectra were acquired at 20 °C with an Agilent Inova 600 MHz NMR spectrometer, equipped with a room temperature 5 mm triple-resonance inverse probe with z-axis field gradient and a Bruker 600 MHz NMR spectrometer, equipped with a Z-gradient cryoprobe.
(§3) WaterLOGSY mixing time was 1.5 s, and additional experiments were performed with 0.75 s and 0.25 s mixing time. Both STD and WaterLOGSY spectra were recorded for each sample. WaterLOGSY spectra in the absence of protein receptor were recorded with 400 µM compound. All the NMR experiments were performed at 293 K with excitation sculpting to suppress peaks from water. […] The STD factors were calculated according to the following equation: R=(ISTD/I1D)×100) were ISTD and I1D are the intensity of proton resonances of the STD and the 1 D proton spectra, respectively. […]
(§4) This is due to the WaterLOGSY mechanism that involves magnetisation transfer from bulk water. Therefore, we propose the following protocol to quantitatively evaluate the WaterLOGSY signals of the protons of a compound bound to its receptor. […]

In experiment [2] the target is T1, human serum albumin (HSA). Briefly: Dissociation constant of fragment bound to HSA. The class given is binding.
Experiment [3] addresses N-terminal domain (9–236) of HSP90. The arrangement: method as in PMID 20718493. As to conditions: bound to HSP90; cited from earlier work.
Experiment [4] addresses T2, N-terminal domain of HSP90 (Homo sapiens, UniProt P07900).
T2 construct: the N-terminal domain (9–236) of HSP-90 were produced and purified; made in house; host or cells: Escherichia coli
Kind of experiment: WaterLOGSY NMR epitope mapping, HSP90. The class given is binding. Conditions: proton H1, bound to HSP90, 1.5 s mixing time, normalised. The procedure: as §1, §2, §3, §4

Another experiment addresses Bcl-xL. The arrangement: method as in PMID 16420051. As to conditions: bound to Bcl-xL; cited from earlier work.
Experiment [5] deals with T3, glycogen phosphorylase (GP) (Oryctolagus cuniculus, UniProt P00489).
T3 sequence (P00489 1-843): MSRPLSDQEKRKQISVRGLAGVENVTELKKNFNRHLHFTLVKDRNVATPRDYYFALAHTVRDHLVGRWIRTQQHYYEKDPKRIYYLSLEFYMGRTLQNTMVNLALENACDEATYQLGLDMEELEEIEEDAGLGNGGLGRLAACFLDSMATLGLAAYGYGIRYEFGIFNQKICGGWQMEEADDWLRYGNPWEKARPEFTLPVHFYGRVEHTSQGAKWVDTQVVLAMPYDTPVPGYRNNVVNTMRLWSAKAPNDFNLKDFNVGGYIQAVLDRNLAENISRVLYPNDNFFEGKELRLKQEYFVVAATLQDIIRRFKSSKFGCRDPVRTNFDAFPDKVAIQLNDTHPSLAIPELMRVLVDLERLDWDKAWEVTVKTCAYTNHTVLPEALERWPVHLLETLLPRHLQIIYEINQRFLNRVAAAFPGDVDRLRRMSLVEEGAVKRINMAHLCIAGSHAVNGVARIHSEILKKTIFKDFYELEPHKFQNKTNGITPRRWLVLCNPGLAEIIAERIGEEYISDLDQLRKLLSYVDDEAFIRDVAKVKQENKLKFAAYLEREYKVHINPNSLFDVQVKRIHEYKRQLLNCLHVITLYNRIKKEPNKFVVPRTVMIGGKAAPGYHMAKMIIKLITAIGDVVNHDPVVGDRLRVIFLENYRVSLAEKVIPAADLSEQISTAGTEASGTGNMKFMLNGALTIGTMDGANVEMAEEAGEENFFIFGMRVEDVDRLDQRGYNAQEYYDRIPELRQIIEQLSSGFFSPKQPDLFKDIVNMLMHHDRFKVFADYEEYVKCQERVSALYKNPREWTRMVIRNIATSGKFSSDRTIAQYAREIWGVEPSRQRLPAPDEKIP
Briefly: Dissociation constant of fragment bound to GP. The class given is binding, rabbit. Conditions: unpublished data.

T1 sequence (P02768 25-609): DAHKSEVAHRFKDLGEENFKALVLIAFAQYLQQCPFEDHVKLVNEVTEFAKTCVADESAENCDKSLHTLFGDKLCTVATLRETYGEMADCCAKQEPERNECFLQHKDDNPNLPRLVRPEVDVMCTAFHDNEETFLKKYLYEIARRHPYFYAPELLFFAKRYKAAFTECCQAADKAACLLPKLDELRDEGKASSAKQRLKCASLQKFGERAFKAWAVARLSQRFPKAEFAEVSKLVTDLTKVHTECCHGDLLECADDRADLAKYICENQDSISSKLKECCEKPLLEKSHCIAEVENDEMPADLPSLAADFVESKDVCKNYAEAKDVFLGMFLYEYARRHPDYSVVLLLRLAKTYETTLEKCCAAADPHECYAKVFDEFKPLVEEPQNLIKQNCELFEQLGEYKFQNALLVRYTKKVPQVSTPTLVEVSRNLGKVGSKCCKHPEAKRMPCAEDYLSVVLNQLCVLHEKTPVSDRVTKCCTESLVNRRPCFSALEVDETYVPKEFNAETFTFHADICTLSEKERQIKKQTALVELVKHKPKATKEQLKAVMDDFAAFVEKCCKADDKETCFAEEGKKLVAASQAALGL

Turning to `Cc1ccc(O)c(O)c1` [Compound 1, 4-methylcatechol], the WLOGSY factor in experiment [1] was 100%. Also, the dissociation constant (Kd) in experiment [2] is greater than 1000 µM. With `CCN(CC)C(=O)c1ccc(O)c(OC)c1` [Compound 4, N,N-diethylvanillamide], in experiment [3], the Kd was 790 µM. Moreover, the WLOGSY factor in experiment [4] is listed as 10%. Turning to `O=C(O)c1ccc(-c2ccc(F)cc2)cc1` [Compound 5, 4′-fluoro-[1,1′-biphenyl]-4-carboxylic acid], the Kd on Bcl-xL was 300 µM. In experiment [5], `O=C(O)c1ccc(Oc2ccccc2)cc1` [Compound 6, 4-phenoxybenzoic acid] displayed a dissociation constant Kd greater than 1000 µM.
